Experimental data as given in ChEMBL document CHEMBL1201862, “PubChem BioAssay data set” (2004).
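Tested at 5 concentrations; 48 h exposure; 96-well plates; endpoints linearly interpolated, else capped at highest concentration. The concentration for 50% growth inhibition is given as GI50.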 Active and inactive are the calls of the source. Cut-off read from the data, not from the text of the source: active = GI50 up to about 1.1 µM and inactive = higher.

Key:
Assay in all cases: inhibition of tumour cell growth, NCI panel, 48 h
786-0 = test system: 786-0
SN12C = test system: SN12C
OVCAR-5 = test system: OVCAR-5
SF-539 = test system: SF-539
SK-OV-3 = test system: SK-OV-3
HT-29 = test system: HT-29
KM-20L2 = test system: KM-20L2
HCT-116 = test system: HCT-116
SF-268 = test system: SF-268
DLD-1 = test system: DLD-1
COLO 205 = test system: COLO 205
UACC-62 = test system: UACC-62
CAKI-1 = test system: CAKI-1
SF-295 = test system: SF-295
NCI-H226 = test system: NCI-H226
ACHN = test system: ACHN
KM12 = test system: KM12
HCC 2998 = test system: HCC 2998
NCI-H23 = test system: NCI-H23
MOLT-4 = test system: MOLT-4
Malme-3M = test system: Malme-3M
CCRF-CEM = test system: CCRF-CEM
LOX IMVI = test system: LOX IMVI
SK-MEL-28 = test system: SK-MEL-28
IGROV-1 = test system: IGROV-1
SK-MEL-5 = test system: SK-MEL-5
RPMI-8226 = test system: RPMI-8226
SNB-78 = test system: SNB-78
DMS-273 = test system: DMS-273
SNB-19 = test system: SNB-19
UO-31 = test system: UO-31
SNB-75 = test system: SNB-75
U-251 = test system: U-251
HOP-18 = test system: HOP-18
A549 = test system: A549
SW-620 = test system: SW-620
OVCAR-4 = test system: OVCAR-4
LXFL 529 = test system: LXFL 529
SK-MEL-2 = test system: SK-MEL-2
OVCAR-8 = test system: OVCAR-8
K562 = test system: K562
NCI-H460 = test system: NCI-H460
UACC-257 = test system: UACC-257
SR = test system: SR
M19-MEL = test system: M19-MEL
TK-10 = test system: TK-10
A498 = test system: A498
RXF 393 = test system: RXF 393
M14 = test system: M14
NCI-H522 = test system: NCI-H522
OVCAR-3 = test system: OVCAR-3
EKVX = test system: EKVX
HOP-62 = test system: HOP-62
HCT-15 = test system: HCT-15
DMS-114 = test system: DMS-114
HOP-92 = test system: HOP-92
HL-60 = test system: HL-60
XF498 = test system: XF498

Measured: GI50

N#CCCN(CCC#N)c1ccc(/C=C(/NC(=O)c2cc([N+](=O)[O-])ccc2Cl)C(=O)NN)cc1
inactive: 786-0 > 100 µM | SN12C > 100 µM | OVCAR-5 > 100 µM | SF-539 > 100 µM | SK-OV-3 > 100 µM | HT-29 > 100 µM | KM-20L2 > 100 µM | HCT-116 > 100 µM | SF-268 > 100 µM | DLD-1 > 100 µM | COLO 205 > 100 µM | UACC-62 > 100 µM | CAKI-1 > 100 µM | SF-295 > 100 µM | NCI-H226 > 100 µM | ACHN > 100 µM | KM12 > 100 µM | HCC 2998 > 100 µM | NCI-H23 > 100 µM | MOLT-4 44.8 µM | Malme-3M > 100 µM | CCRF-CEM 47.5 µM | LOX IMVI 41.4 µM | SK-MEL-28 > 100 µM | IGROV-1 > 100 µM | SK-MEL-5 > 100 µM | RPMI-8226 29.6 µM | SNB-78 > 100 µM | DMS-273 > 100 µM | SNB-19 > 100 µM | UO-31 > 100 µM | SNB-75 > 100 µM | U-251 > 100 µM | HOP-18 > 100 µM | A549 > 100 µM | SW-620 > 100 µM | OVCAR-4 > 100 µM | LXFL 529 54 µM | SK-MEL-2 > 100 µM | OVCAR-8 58.3 µM | K562 > 100 µM | NCI-H460 > 100 µM | UACC-257 > 100 µM | SR 3.94 µM | M19-MEL > 100 µM | TK-10 > 100 µM | A498 > 100 µM | RXF 393 > 100 µM | M14 > 100 µM | NCI-H522 > 100 µM | OVCAR-3 77.8 µM | EKVX > 100 µM | HOP-62 > 100 µM
> 100 µM: HCT-15

NC(=O)C12CC3CC(CC(F)(C3)C1)C2
inactive: 786-0 > 100 µM | OVCAR-5 > 100 µM | SF-539 > 100 µM | SK-OV-3 > 100 µM | DMS-114 > 100 µM | HT-29 > 100 µM | KM-20L2 > 100 µM | HCT-116 > 100 µM | DLD-1 > 100 µM | COLO 205 > 100 µM | UACC-62 > 100 µM | HOP-92 > 100 µM | ACHN > 100 µM | KM12 > 100 µM | HCC 2998 > 100 µM | NCI-H23 > 100 µM | MOLT-4 > 100 µM | Malme-3M > 100 µM | CCRF-CEM > 100 µM | LOX IMVI > 100 µM | SK-MEL-28 > 100 µM | IGROV-1 > 100 µM | RPMI-8226 > 100 µM | SNB-78 > 100 µM | DMS-273 > 100 µM | UO-31 > 100 µM | SNB-75 57.4 µM | U-251 > 100 µM | A549 > 100 µM | SW-620 > 100 µM | LXFL 529 > 100 µM | SK-MEL-2 > 100 µM | OVCAR-8 > 100 µM | K562 > 100 µM | NCI-H460 > 100 µM | UACC-257 > 100 µM | HL-60 > 100 µM | M19-MEL > 100 µM | TK-10 > 100 µM | A498 > 100 µM | RXF 393 > 100 µM | M14 > 100 µM | NCI-H522 > 100 µM | OVCAR-3 > 100 µM | XF498 > 100 µM | EKVX > 100 µM | HOP-62 > 100 µM

CC(=O)Oc1cc(OC(C)=O)c2c(c1)OC(c1ccc(OC(C)=O)c(OC(C)=O)c1)CC2=O (stereo not drawn)
inactive: SK-OV-3 71.9 µM | HCT-116 63.7 µM | COLO 205 63.1 µM | HOP-92 29.8 µM | SF-295 41.6 µM | HCC 2998 > 100 µM | CCRF-CEM 20.4 µM | SK-MEL-5 55.3 µM | DMS-273 50.6 µM | UO-31 38.9 µM | HOP-18 30.1 µM | A549 43.9 µM | SW-620 47.5 µM | SR 14.7 µM | TK-10 49.9 µM
active: SN12C 0.0446 µM | HL-60 0.458 µM
